What was measured:
[1] = xn = mol fraction of the nth substance listed; conditions: 101 kPa, Liquid; for speed of sound: Sing-around technique in a fixed-path interferometer; for mass density: Vibrating tube method
[2] = refractive index (Na D-line) (dimensionless); xn = mol fraction of the nth substance listed; conditions: 101 kPa, Liquid, Standard Abbe refractometry

CCCCn1cc[n+](C)c1.N#CN=C=[N-] [1-butyl-3-methylimidazolium dicyanamide] + O
Conditions	mass density, 288.15 K [kg/m3]	mass density, 298.15 K [kg/m3]	mass density, 308.15 K [kg/m3]	refractive index, 288.15 K	refractive index, 298.15 K	refractive index, 308.15 K	speed of sound, 288.15 K [m/s]	speed of sound, 298.15 K [m/s]	speed of sound, 308.15 K [m/s]
[1], x2 = 0	1066.58	1060.17	1053.83	–	–	–	1764.3	1738.1	1713.1
[1], x2 = 0.1088	1065.59	1059.16	1052.79	–	–	–	1762	1736.9	1712.4
[1], x2 = 0.1227	1065.44	1059.01	1052.64	–	–	–	1761.9	1736.8	1712.2
[1], x2 = 0.2017	1064.62	1058.16	1051.77	–	–	–	1760.9	1735.9	1711.6
[1], x2 = 0.2943	1063.46	1056.98	1050.55	–	–	–	1759.9	1735	1710.7
[1], x2 = 0.3952	1061.88	1055.35	1048.88	–	–	–	1758.3	1734	1710
[1], x2 = 0.503	1059.83	1053.24	1046.7	–	–	–	1756.8	1733	1709.4
[1], x2 = 0.5985	1057.37	1050.71	1044.09	–	–	–	1755.5	1732.1	1709
[1], x2 = 0.7032	1053.63	1046.89	1040.15	–	–	–	1751.4	1729.1	1706.9
[1], x2 = 0.805	1047.26	1040.5	1033.69	–	–	–	1738.5	1718.6	1698.2
[1], x2 = 0.9006	1035.92	1029.6	1023.11	–	–	–	1694.1	1682.2	1668.8
[1], x2 = 0.9503	1024.07	1018.75	1013.06	–	–	–	1630.6	1630.5	1627.4
[2], x2 = 0	–	–	–	1.51213	1.50893	1.50578	–	–	–
[2], x2 = 0.1088	–	–	–	1.5099	1.50673	1.50348	–	–	–
[2], x2 = 0.1227	–	–	–	1.50953	1.50631	1.50321	–	–	–
[2], x2 = 0.2017	–	–	–	1.50758	1.50443	1.50114	–	–	–
[2], x2 = 0.2943	–	–	–	1.50476	1.50161	1.49821	–	–	–
[2], x2 = 0.3952	–	–	–	1.50075	1.49756	1.49443	–	–	–
[2], x2 = 0.503	–	–	–	1.49536	1.49223	1.48897	–	–	–
[2], x2 = 0.5985	–	–	–	1.48855	1.48541	1.48225	–	–	–
[2], x2 = 0.7032	–	–	–	1.47799	1.47495	1.47147	–	–	–
[2], x2 = 0.805	–	–	–	1.46004	1.45694	1.45386	–	–	–
[2], x2 = 0.9006	–	–	–	1.42867	1.42613	1.42382	–	–	–
[2], x2 = 0.9503	–	–	–	1.39733	1.3952	1.39322	–	–	–

— the NIST ThermoML archive (doi:10.1021/je201334p)
